Experimental data as given in PubChem BioAssay (NCI).
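Values below derive from 48-hour exposures of cells grown in 96-well plates, with endpoints linearly interpolated between the two concentrations bracketing the appropriate inhibition level. TGI: total growth inhibition.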

Assays:
Assay in all cases: DTP human tumour cell line panel, 48 h
SF-268 CNS = tested on: SF-268 CNS
IGROV1 ovarian = tested on: IGROV1 ovarian
SNB-19 CNS = tested on: SNB-19 CNS
786-0 renal = tested on: 786-0 renal
A498 renal = tested on: A498 renal
MCF7 breast = tested on: MCF7 breast
NCI/ADR-RES ovarian = tested on: NCI/ADR-RES ovarian
T-47D breast = tested on: T-47D breast
HT29 colon = tested on: HT29 colon
PC-3 prostate = tested on: PC-3 prostate
EKVX NSCLC = tested on: EKVX NSCLC
UACC-62 melanoma = tested on: UACC-62 melanoma
DU-145 prostate = tested on: DU-145 prostate
HS 578T breast = tested on: HS 578T breast
HL-60(TB) leukemia = tested on: HL-60(TB) leukemia
CCRF-CEM leukemia = tested on: CCRF-CEM leukemia
COLO 205 colon = tested on: COLO 205 colon
MDA-MB-231 breast = tested on: MDA-MB-231 breast
RXF 393 renal = tested on: RXF 393 renal

`Cc1cc(C)c2c(=O)n(CN3CCN(c4ccccc4)CC3)sc2n1` was tested, and the TGI (SF-268 CNS) was > 100 µM, the TGI (IGROV1 ovarian) was > 100 µM and the TGI (SNB-19 CNS) was > 100 µM. The TGI (786-0 renal) was 31.4 µM, the TGI (A498 renal) was > 100 µM and the TGI (MCF7 breast) was > 100 µM. For the same compound, the TGI (NCI/ADR-RES ovarian) was 52.7 µM, the TGI (T-47D breast) was 33.8 µM and the TGI (HT29 colon) was 34.6 µM. The TGI (PC-3 prostate) was 40.5 µM, the TGI (EKVX NSCLC) was 70.1 µM and the TGI (UACC-62 melanoma) was > 100 µM. For the same compound, the TGI (DU-145 prostate) was 63.3 µM, the TGI (HS 578T breast) was > 100 µM and the TGI (HL-60(TB) leukemia) was 41.5 µM. The TGI (CCRF-CEM leukemia) was > 100 µM, the TGI (COLO 205 colon) was 41.3 µM and the TGI (MDA-MB-231 breast) was 39.5 µM. For the same compound, the TGI (RXF 393 renal) was 25.7 µM.

`COc1ccc(-c2cn3c(nc4ccccc43)c(C)n2)cc1` was tested, and the TGI (SF-268 CNS) was > 100 µM, the TGI (IGROV1 ovarian) was > 100 µM and the TGI (SNB-19 CNS) was > 100 µM. For the same compound, the TGI (786-0 renal) was > 100 µM, the TGI (A498 renal) was > 100 µM and the TGI (MCF7 breast) was > 100 µM. The TGI (NCI/ADR-RES ovarian) was > 100 µM, the TGI (T-47D breast) was > 67.3 µM and the TGI (HT29 colon) was > 100 µM. For the same compound, the TGI (PC-3 prostate) was > 100 µM, the TGI (EKVX NSCLC) was > 100 µM and the TGI (UACC-62 melanoma) was > 91.5 µM. The TGI (DU-145 prostate) was > 100 µM, the TGI (HS 578T breast) was > 100 µM and the TGI (HL-60(TB) leukemia) was > 100 µM. The TGI (CCRF-CEM leukemia) was > 100 µM, the TGI (COLO 205 colon) was > 100 µM and the TGI (MDA-MB-231 breast) was > 100 µM. For the same compound, the TGI (RXF 393 renal) was > 88.9 µM.

In the case of `C/C(=N/NC(=S)N1CCCCCC1)c1ccccc1O`, the TGI (SF-268 CNS) is reported as > 24.5 µM, the TGI (IGROV1 ovarian) is reported as > 39.7 µM and the TGI (SNB-19 CNS) is reported as > 100 µM. For the same compound, the TGI (786-0 renal) was 39.3 µM, the TGI (A498 renal) was > 74 µM and the TGI (MCF7 breast) was > 100 µM. For the same compound, the TGI (NCI/ADR-RES ovarian) was 8.35 µM, the TGI (T-47D breast) was > 33.6 µM and the TGI (HT29 colon) was 39.7 µM. For the same compound, the TGI (PC-3 prostate) was > 100 µM, the TGI (EKVX NSCLC) was > 100 µM and the TGI (UACC-62 melanoma) was 17.7 µM. The TGI (DU-145 prostate) was > 69.4 µM, the TGI (HS 578T breast) was > 100 µM and the TGI (HL-60(TB) leukemia) was 7.8 µM. For the same compound, the TGI (CCRF-CEM leukemia) was > 30.8 µM, the TGI (COLO 205 colon) was > 49.3 µM and the TGI (MDA-MB-231 breast) was > 66.8 µM. The TGI (RXF 393 renal) was > 93 µM.

In the case of `COC(=O)/C=C1/OC(c2ccc(Br)cc2)=C(Br)C1=O`, the TGI (SF-268 CNS) is reported as 17 µM, the TGI (IGROV1 ovarian) is reported as 17 µM and the TGI (SNB-19 CNS) is reported as 28.9 µM. It also gave a TGI (786-0 renal) of 6.31 µM, a TGI (A498 renal) of 30.4 µM and a TGI (MCF7 breast) of 25.5 µM. It also gave a TGI (NCI/ADR-RES ovarian) of 32.9 µM, a TGI (T-47D breast) of 15.1 µM and a TGI (HT29 colon) of 11.3 µM. For the same compound, the TGI (PC-3 prostate) was 17.5 µM, the TGI (EKVX NSCLC) was 32 µM and the TGI (UACC-62 melanoma) was 20.5 µM. For the same compound, the TGI (DU-145 prostate) was 25.4 µM, the TGI (HS 578T breast) was 28.1 µM and the TGI (HL-60(TB) leukemia) was 7.87 µM. For the same compound, the TGI (CCRF-CEM leukemia) was 6.22 µM, the TGI (COLO 205 colon) was 4.12 µM and the TGI (MDA-MB-231 breast) was 8.17 µM. For the same compound, the TGI (RXF 393 renal) was 11.1 µM.

For `CCOC(=O)CCC(NC(=O)N1CCN(c2c(C)nc(C)[nH]c2=O)CC1)C(=O)OCC` (stereo not given), the TGI (SF-268 CNS) was > 100 µM, the TGI (IGROV1 ovarian) was > 100 µM and the TGI (SNB-19 CNS) was > 100 µM. The TGI (786-0 renal) was > 100 µM, the TGI (A498 renal) was > 100 µM and the TGI (MCF7 breast) was > 100 µM. For the same compound, the TGI (NCI/ADR-RES ovarian) was > 100 µM, the TGI (T-47D breast) was > 100 µM and the TGI (HT29 colon) was > 100 µM. For the same compound, the TGI (PC-3 prostate) was > 100 µM, the TGI (EKVX NSCLC) was > 100 µM and the TGI (UACC-62 melanoma) was > 100 µM. For the same compound, the TGI (DU-145 prostate) was > 100 µM, the TGI (HS 578T breast) was > 100 µM and the TGI (HL-60(TB) leukemia) was > 100 µM. The TGI (CCRF-CEM leukemia) was > 100 µM, the TGI (COLO 205 colon) was > 100 µM and the TGI (MDA-MB-231 breast) was > 100 µM. The TGI (RXF 393 renal) was > 100 µM.

For `Nc1ccc(-c2nc3cc(F)ccc3s2)cc1Br`, the TGI (SF-268 CNS) was > 100 µM, the TGI (IGROV1 ovarian) was > 37.2 µM and the TGI (SNB-19 CNS) was > 100 µM. For the same compound, the TGI (786-0 renal) was > 100 µM, the TGI (A498 renal) was > 100 µM and the TGI (MCF7 breast) was 0.528 µM. The TGI (NCI/ADR-RES ovarian) was > 100 µM, the TGI (T-47D breast) was > 100 µM and the TGI (HT29 colon) was > 100 µM. For the same compound, the TGI (PC-3 prostate) was > 100 µM, the TGI (EKVX NSCLC) was > 63.6 µM and the TGI (UACC-62 melanoma) was > 100 µM. The TGI (DU-145 prostate) was > 100 µM, the TGI (HS 578T breast) was > 100 µM and the TGI (HL-60(TB) leukemia) was > 100 µM. For the same compound, the TGI (CCRF-CEM leukemia) was > 100 µM, the TGI (COLO 205 colon) was > 100 µM and the TGI (MDA-MB-231 breast) was > 73.2 µM. The TGI (RXF 393 renal) was > 100 µM.

With `COc1cccc2c3cccc(OC)c3c3[nH]cnc3c12` the TGI (SF-268 CNS) was 9.26 µM, the TGI (IGROV1 ovarian) was 3.46 µM and the TGI (SNB-19 CNS) was 26.9 µM. It also gave a TGI (786-0 renal) of 2.98 µM, a TGI (A498 renal) of 33.4 µM and a TGI (MCF7 breast) of 2.81 µM. For the same compound, the TGI (NCI/ADR-RES ovarian) was 9.42 µM, the TGI (T-47D breast) was 40.2 µM and the TGI (HT29 colon) was 3 µM. The TGI (PC-3 prostate) was 4.6 µM, the TGI (EKVX NSCLC) was 27.9 µM and the TGI (UACC-62 melanoma) was 30.3 µM. For the same compound, the TGI (DU-145 prostate) was 2.78 µM, the TGI (HS 578T breast) was 20.5 µM and the TGI (HL-60(TB) leukemia) was 2.38 µM. The TGI (CCRF-CEM leukemia) was 3.4 µM, the TGI (COLO 205 colon) was 30.1 µM and the TGI (MDA-MB-231 breast) was 4.11 µM. It also gave a TGI (RXF 393 renal) of 3.42 µM.

In the case of `C/C=C/C=C/C1=NN(c2cccc(S(=O)(=O)O)c2)C2(C1)C(Cl)C(=O)N2c1nc2ccccc2s1` (stereo not given), the TGI (SF-268 CNS) is reported as 38.4 µM, the TGI (IGROV1 ovarian) is reported as 25.4 µM and the TGI (SNB-19 CNS) is reported as 29.9 µM. It also gave a TGI (786-0 renal) of 26.7 µM, a TGI (A498 renal) of 31.8 µM and a TGI (MCF7 breast) of 27 µM. The TGI (NCI/ADR-RES ovarian) was > 82.7 µM, the TGI (T-47D breast) was 21.3 µM and the TGI (HT29 colon) was 33.3 µM. For the same compound, the TGI (PC-3 prostate) was 26.3 µM, the TGI (EKVX NSCLC) was 35.6 µM and the TGI (UACC-62 melanoma) was 26.2 µM. The TGI (DU-145 prostate) was 26.2 µM, the TGI (HS 578T breast) was > 90.3 µM and the TGI (HL-60(TB) leukemia) was 33.1 µM. The TGI (CCRF-CEM leukemia) was 13.1 µM, the TGI (COLO 205 colon) was 35.3 µM and the TGI (MDA-MB-231 breast) was 28.9 µM. The TGI (RXF 393 renal) was 24.3 µM.

For `Fc1cc(C2=C[C@H](c3ccc4c(c3)OCO4)NC(=S)N2)c(Cl)cc1Cl`, the TGI (SF-268 CNS) was > 100 µM, the TGI (IGROV1 ovarian) was > 100 µM and the TGI (SNB-19 CNS) was > 100 µM. The TGI (786-0 renal) was > 100 µM, the TGI (A498 renal) was 79 µM and the TGI (MCF7 breast) was > 100 µM. For the same compound, the TGI (NCI/ADR-RES ovarian) was > 100 µM, the TGI (T-47D breast) was > 100 µM and the TGI (HT29 colon) was > 100 µM. The TGI (PC-3 prostate) was 85.8 µM, the TGI (EKVX NSCLC) was > 100 µM and the TGI (UACC-62 melanoma) was > 100 µM. The TGI (DU-145 prostate) was > 100 µM, the TGI (HS 578T breast) was > 100 µM and the TGI (HL-60(TB) leukemia) was 0.23 µM. For the same compound, the TGI (CCRF-CEM leukemia) was > 100 µM, the TGI (COLO 205 colon) was 50.3 µM and the TGI (MDA-MB-231 breast) was > 100 µM. The TGI (RXF 393 renal) was > 100 µM.

In the case of `C/C(=C/CNc1ncnc2c1ncn2CCC(=O)O)CO`, the TGI (SF-268 CNS) is reported as > 100 µM, the TGI (IGROV1 ovarian) is reported as > 100 µM and the TGI (SNB-19 CNS) is reported as > 100 µM. For the same compound, the TGI (786-0 renal) was > 100 µM, the TGI (A498 renal) was > 100 µM and the TGI (MCF7 breast) was > 100 µM. The TGI (NCI/ADR-RES ovarian) was > 100 µM, the TGI (T-47D breast) was > 100 µM and the TGI (HT29 colon) was > 100 µM. The TGI (PC-3 prostate) was > 100 µM, the TGI (EKVX NSCLC) was > 100 µM and the TGI (UACC-62 melanoma) was > 100 µM. The TGI (DU-145 prostate) was > 100 µM, the TGI (HS 578T breast) was > 100 µM and the TGI (HL-60(TB) leukemia) was > 100 µM. The TGI (CCRF-CEM leukemia) was > 100 µM, the TGI (COLO 205 colon) was > 100 µM and the TGI (MDA-MB-231 breast) was > 100 µM. The TGI (RXF 393 renal) was > 100 µM.
